Measurements reported in patent US20190030018A1 (Celgene Corporation, priority 2017, published 2019).

Tested on: 563 solid tumor cell lines
Experiment: Luminex assay in PRISM, 5 days treatment (AUC)
Format: cell-based
Parameters: AUC: scale not given here
Experimental: The AUC values provided in Table 80 below were calculated based on the Median Fluorescent Intensity values, the primary read out of the Luminex assay in PRISM. The following parameters were used in this assay: • 8 point dose was used in triplicate • max concentration of 10 μM was used with serial 4-fold dilutions (low of […]) • 563 adherent cell lines in 23 pools. • treatment duration was 5 days.

In the case of `O=C1CCC(N2Cc3cc(CNC(=O)C(F)(F)c4ccc(Cl)cc4)ccc3C2=O)C(=O)N1` (stereo not shown) [Compound 1, 2-(4-chlorophenyl)-N-((2-(2,6-dioxopiperidin-3-yl)-1-oxoisoindolin-5-yl)methyl)-2,2-difluoroacetamide], the AUC (SIMA_AUTONOMIC_GANGLIA) is reported as 0.764, the AUC (SJSA1_BONE) is reported as 0.808 and the AUC (SKES1_BONE) is reported as 0.984. It also gave an AUC (SKHEP1_LIVER) of 0.817, an AUC (SKLU1_LUNG) of 0.644 and an AUC (SKMEL2_SKIN) of 0.910. It also gave an AUC (SKMEL3_SKIN) of 0.848, an AUC (SKMEL5_SKIN) of 0.831 and an AUC (SKMEL24_SKIN) of 0.862. It also gave an AUC (SKMEL30_SKIN) of 0.795, an AUC (SKMES1_LUNG) of 0.902 and an AUC (SKNAS_AUTONOMIC_GANGLIA) of 0.832. It also gave an AUC (SKNBE2_AUTONOMIC_GANGLIA) of 0.879, an AUC (SKNEP1_BONE) of 0.523 and an AUC (SKNFI_AUTONOMIC_GANGLIA) of 0.852. For the same compound, the AUC (SKOV3_OVARY) was 0.850, the AUC (SKPNDW_BONE) was 0.861 and the AUC (SKUT1_SOFT_TISSUE) was 0.845. It also gave an AUC (SNB75_CENTRAL_NERVOUS_SYSTEM) of 0.768, an AUC (SNGM_ENDOMETRIUM) of 0.794 and an AUC (SNU46_UPPER_AERODIGESTIVE_TRACT) of 0.925. For the same compound, the AUC (SNU61_LARGE_INTESTINE) was 0.881, the AUC (SNU81_LARGE_INTESTINE) was 0.400 and the AUC (SNU182_LIVER) was 0.179. It also gave an AUC (SNU216_STOMACH) of 0.521, an AUC (SNU245_BILIARY_TRACT) of 0.853 and an AUC (SNU308_BILIARY_TRACT) of 0.873. The AUC (SNU398_LIVER) was 0.951, the AUC (SNU407_LARGE_INTESTINE) was 0.284 and the AUC (SNU410_PANCREAS) was 0.994. It also gave an AUC (SNU423_LIVER) of 0.697, an AUC (SNU449_LIVER) of 0.971 and an AUC (SNU668_STOMACH) of 0.423. The AUC (SNU685_ENDOMETRIUM) was 0.812, the AUC (SNU719_STOMACH) was 0.869 and the AUC (SNU738_CENTRAL_NERVOUS_SYSTEM) was 0.826. For the same compound, the AUC (SNU840_OVARY) was 0.848, the AUC (SNU869_BILIARY_TRACT) was 0.782 and the AUC (SNU878_LIVER) was 0.890. For the same compound, the AUC (SNU886_LIVER) was 0.656, the AUC (SNU1041_UPPER_AERODIGESTIVE_TRACT) was 0.806 and the AUC (SNU1066_UPPER_AERODIGESTIVE_TRACT) was 0.860. It also gave an AUC (SNU1077_ENDOMETRIUM) of 0.759, an AUC (SNU1105_CENTRAL_NERVOUS_SYSTEM) of 0.620 and an AUC (SNU1196_BILIARY_TRACT) of 0.653. For the same compound, the AUC (SNU1214_UPPER_AERODIGESTIVE_TRACT) was 0.826, the AUC (SNUC2A_LARGE_INTESTINE) was 0.608 and the AUC (SNUC4_LARGE_INTESTINE) was 0.290. For the same compound, the AUC (SQ1_LUNG) was 0.838, the AUC (SU8686_PANCREAS) was 0.848 and the AUC (SUIT2_PANCREAS) was 0.856. It also gave an AUC (SW780_URINARY_TRACT) of 0.986, an AUC (SW837_LARGE_INTESTINE) of 0.995 and an AUC (SW948_LARGE_INTESTINE) of 0.766. The AUC (SW1088_CENTRAL_NERVOUS_SYSTEM) was 0.835, the AUC (SW1116_LARGE_INTESTINE) was 0.879 and the AUC (SW1271_LUNG) was 0.718. It also gave an AUC (SW1573_LUNG) of 0.894, an AUC (SW1710_URINARY_TRACT) of 0.835 and an AUC (SW1990_PANCREAS) of 0.874. For the same compound, the AUC (T3M10_LUNG) was 0.951, the AUC (T24_URINARY_TRACT) was 0.906 and the AUC (T47D_BREAST) was 0.698. The AUC (T98G_CENTRAL_NERVOUS_SYSTEM) was 0.830, the AUC (TC32_BONE) was 0.681 and the AUC (TCCPAN2_PANCREAS) was 0.905. It also gave an AUC (TE1_OESOPHAGUS) of 0.875, an AUC (TE5_OESOPHAGUS) of 0.797 and an AUC (TE6_OESOPHAGUS) of 0.864. It also gave an AUC (TE8_OESOPHAGUS) of 0.802, an AUC (TE9_OESOPHAGUS) of 0.911 and an AUC (TE10_OESOPHAGUS) of 0.872. For the same compound, the AUC (TE11_OESOPHAGUS) was 0.870, the AUC (TE14_OESOPHAGUS) was 0.898 and the AUC (TEN_ENDOMETRIUM) was 0.815. The AUC (TM31_CENTRAL_NERVOUS_SYSTEM) was 0.424, the AUC (TOV21G_OVARY) was 0.864 and the AUC (TOV112D_OVARY) was 0.871. The AUC (TT2609C02_THYROID) was 0.251, the AUC (TTC709_SOFT_TISSUE) was 0.520 and the AUC (TT_OESOPHAGUS) was 0.859. The AUC (TT_THYROID) was 0.179, the AUC (TUHR4TKB_KIDNEY) was 0.265 and the AUC (U2OS_BONE) was 0.862. The AUC (U87MG_CENTRAL_NERVOUS_SYSTEM) was 0.724, the AUC (U118MG_CENTRAL_NERVOUS_SYSTEM) was 0.871 and the AUC (U251MG_CENTRAL_NERVOUS_SYSTEM) was 0.806. For the same compound, the AUC (UACC62_SKIN) was 0.837, the AUC (UACC257_SKIN) was 0.863 and the AUC (UBLC1_URINARY_TRACT) was 0.875. It also gave an AUC (UO31_KIDNEY) of 0.710, an AUC (VMRCRCW_KIDNEY) of 0.345 and an AUC (VMRCRCZ_KIDNEY) of 0.969. For the same compound, the AUC (WM88_SKIN) was 0.802, the AUC (WM793_SKIN) was 0.866 and the AUC (WM983B_SKIN) was 0.861. It also gave an AUC (WM1799_SKIN) of 0.101, an AUC (WM2664_SKIN) of 0.578 and an AUC (X8MGBA_CENTRAL_NERVOUS_SYSTEM) of 0.805. The AUC (X42MGBA_CENTRAL_NERVOUS_SYSTEM) was 0.845, the AUC (X253JBV_URINARY_TRACT) was 0.966 and the AUC (X253J_URINARY_TRACT) was 0.905. It also gave an AUC (X647V_URINARY_TRACT) of 0.284, an AUC (X769P_KIDNEY) of 0.463 and an AUC (X786O_KIDNEY) of 0.853. It also gave an AUC (X5637_URINARY_TRACT) of 0.624, an AUC (X8305C_THYROID) of 0.849 and an AUC (X8505C_THYROID) of 0.558. The AUC (X2313287_STOMACH) was 0.254, the AUC (YAPC_PANCREAS) was 0.719 and the AUC (YD8_UPPER_AERODIGESTIVE_TRACT) was 0.501. For the same compound, the AUC (YD10B_UPPER_AERODIGESTIVE_TRACT) was 0.903, the AUC (YD38_UPPER_AERODIGESTIVE_TRACT) was 0.877 and the AUC (YKG1_CENTRAL_NERVOUS_SYSTEM) was 0.936. It also gave an AUC (ZR751_BREAST) of 0.853.
